Among the test systems are SF-295; OVCAR-3; UO-31; ACHN; NCI-H23; OVCAR-4; K562; UACC-62; NCI-H522; SK-MEL-28; UACC-257; SK-MEL-2; HOP-92; SNB-75; SK-OV-3; SNB-19; TK-10; OVCAR-8.
What all share (assay): NCI-60 cell line screen, 48 h

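Tested at 5 concentrations; 48 h exposure; 96-well plates; endpoints linearly interpolated, else capped at highest concentration. GI50 = concentration required for 50% inhibition of growth.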 Activity calls are given as the source filed them. No stated cut-off is given here; in the data, active = GI50 up to about 1.1 µM and inactive = higher.

Take `CCCCN(CCCC)C(=O)C(=O)C(C)C(=O)CC` (configuration not stated): the GI50 with SF-295, in the assay with OVCAR-3, in the assay with UO-31, with ACHN, in the assay on NCI-H23 and with OVCAR-4 was > 100 µM (inactive) each time. In addition, the GI50 in the assay with K562, in the assay with UACC-62, with NCI-H522, in the assay with SK-MEL-28, in the assay with UACC-257 and with SK-MEL-2 was > 100 µM (inactive) throughout. For the same compound, the GI50 in the assay on HOP-92, in the assay with SNB-75, in the assay on SK-OV-3, in the assay on SNB-19, with TK-10 and with OVCAR-8 was > 100 µM (inactive) in each case.

On to `ClC(Cl)=C(Cl)C1(Cl)CC1COCc1ccccc1` (configuration not stated), for which the GI50 in the assay on SF-295 is 25.5 µM (inactive); with OVCAR-3, 22.6 µM (inactive); in the assay on UO-31 it was 25.8 µM (inactive); in the assay with ACHN it was 39.4 µM (inactive); in the assay with NCI-H23, 25.2 µM (inactive); in the assay with OVCAR-4 it was 17.6 µM (inactive). The GI50 is 30.2 µM (inactive) in the assay on K562; 22.5 µM (inactive) in the assay on UACC-62; 16.5 µM (inactive) in the assay with NCI-H522; 56.2 µM (inactive) in the assay with SK-MEL-28; 26.1 µM (inactive) in the assay with UACC-257; 17.8 µM (inactive) in the assay with SK-MEL-2. The GI50 in the assay with HOP-92 is 15.3 µM (inactive); with SNB-75, 37.2 µM (inactive); in the assay with SK-OV-3, 39.4 µM (inactive); with SNB-19, 36.9 µM (inactive); with TK-10 it was 60.8 µM (inactive); in the assay with OVCAR-8 it was 33.1 µM (inactive).

`CCCCCCCCCCCCCCCCOCC(CP(=O)([O-])OCC[n+]1ccccc1)OC` (configuration not stated): the GI50 in the assay on SF-295 was 4.38 µM (inactive); in the assay with OVCAR-3, 12.6 µM (inactive); in the assay on UO-31 it was 9.4 µM (inactive); with NCI-H23, 4.05 µM (inactive); in the assay with OVCAR-4, 11.4 µM (inactive); in the assay with K562, 17.1 µM (inactive). For the same compound, the GI50 with UACC-62 is 11.3 µM (inactive); in the assay with NCI-H522, 17.3 µM (inactive); with SK-MEL-28, 17 µM (inactive); in the assay with UACC-257 it was 14.5 µM (inactive); in the assay with SK-MEL-2 it was 16.5 µM (inactive); with HOP-92, 2.28 µM (inactive). In addition, the GI50 in the assay with SNB-75 is 8.45 µM (inactive); with SK-OV-3 it was 17.7 µM (inactive); with SNB-19 it was 10.1 µM (inactive); with TK-10 it was 2.9 µM (inactive); with OVCAR-8, 14.7 µM (inactive).

`O=C(c1cccs1)N(C(=S)N1CCN(c2ccccn2)CC1)c1ccccc1`: the GI50 with SF-295 was 80.4 µM (inactive); with OVCAR-3, > 100 µM (inactive); in the assay on UO-31, 39.2 µM (inactive); in the assay on ACHN, > 100 µM (inactive); in the assay with NCI-H23, > 100 µM (inactive); in the assay on OVCAR-4 it was > 100 µM (inactive). The GI50 with K562 was > 100 µM (inactive); with UACC-62 it was 46.5 µM (inactive); in the assay with NCI-H522, 36.2 µM (inactive); in the assay on SK-MEL-28, > 100 µM (inactive); in the assay with UACC-257, 83.2 µM (inactive); in the assay with SK-MEL-2 it was 57.4 µM (inactive). Also, the GI50 is > 100 µM (inactive) in the assay on HOP-92; > 100 µM (inactive) with SNB-75; > 100 µM (inactive) with SK-OV-3; > 100 µM (inactive) with SNB-19; > 100 µM (inactive) with TK-10; 81.7 µM (inactive) in the assay with OVCAR-8.

With `C=CCCCN1CCCCC1=S`, the GI50 in the assay on SF-295, in the assay on OVCAR-3, with UO-31, in the assay with ACHN, in the assay with NCI-H23 and in the assay with OVCAR-4 was > 100 µM (inactive) throughout. Also, the GI50 in the assay on K562, in the assay on UACC-62, in the assay on NCI-H522, in the assay on SK-MEL-28, in the assay on UACC-257 and in the assay with SK-MEL-2 was > 100 µM (inactive) throughout. Moreover, the GI50 is > 100 µM (inactive) in the assay with HOP-92; 36.5 µM (inactive) in the assay with SNB-75; 63.4 µM (inactive) in the assay on SK-OV-3; > 100 µM (inactive) in the assay with SNB-19; > 100 µM (inactive) in the assay on TK-10; > 100 µM (inactive) in the assay with OVCAR-8.

On to `CCOC(C)C(/C=N/NC(N)=S)=NNC(N)=S` (configuration not stated) [GLOXAZONE], for which the GI50 is 1.64 µM (inactive) in the assay on SF-295; > 100 µM (inactive) in the assay on ACHN; > 100 µM (inactive) with NCI-H23; > 100 µM (inactive) in the assay with OVCAR-4; < 0.0195 µM (active) in the assay on K562; > 100 µM (inactive) in the assay on UACC-62. The GI50 with NCI-H522 was 26.2 µM (inactive); in the assay with SK-MEL-28 it was > 74.1 µM (inactive); in the assay with UACC-257, < 0.0411 µM (active); in the assay on SK-MEL-2, 29.1 µM (inactive); with HOP-92, 46.1 µM (inactive); in the assay with SNB-75, 40.3 µM (inactive). Moreover, the GI50 with SK-OV-3, in the assay with SNB-19, with TK-10 and in the assay with OVCAR-8 was > 100 µM (inactive) in each case.

With `COc1cc(/C=N/N=C(\N)NO)ccc1O`, the GI50 with SF-295 was 26.1 µM (inactive); with UO-31 it was 41.4 µM (inactive); in the assay on ACHN, 44.1 µM (inactive); in the assay on NCI-H23, 57.1 µM (inactive); in the assay with OVCAR-4, > 100 µM (inactive); with K562, 33.3 µM (inactive). Moreover, the GI50 is 30.4 µM (inactive) in the assay with UACC-62; 46.3 µM (inactive) in the assay on NCI-H522; 26 µM (inactive) in the assay with SK-MEL-28; > 100 µM (inactive) in the assay with UACC-257; 69.3 µM (inactive) in the assay with SK-MEL-2; > 100 µM (inactive) in the assay on HOP-92. Moreover, the GI50 was 78.7 µM (inactive) in the assay on SK-OV-3, > 100 µM (inactive) in the assay on SNB-19 and 63.7 µM (inactive) with OVCAR-8.

Regarding `COc1cc(C=C2C(=O)OC(C)(C)OC2=O)cc(OC)c1OC`, the GI50 in the assay on SF-295, with OVCAR-3, in the assay with UO-31, with ACHN, with NCI-H23 and with OVCAR-4 was > 100 µM (inactive) throughout. The GI50 in the assay with K562, in the assay with UACC-62, in the assay on NCI-H522, with SK-MEL-28, in the assay on UACC-257 and in the assay with SK-MEL-2 was > 100 µM (inactive) in each case. The GI50 with HOP-92, with SK-OV-3, in the assay with SNB-19, in the assay with TK-10 and with OVCAR-8 was > 100 µM (inactive) each time.

For `CC1=C(C(=O)Nc2ccccc2C)C(c2ccco2)C(C(=O)Nc2ccccc2C)=C(C)N1C`, the GI50 in the assay on SF-295, in the assay on OVCAR-3, with UO-31, with ACHN, in the assay on NCI-H23 and with OVCAR-4 was > 100 µM (inactive) in each case. The GI50 with K562 was 85.5 µM (inactive); in the assay on UACC-62, > 100 µM (inactive); with NCI-H522 it was > 100 µM (inactive); in the assay with SK-MEL-28, > 100 µM (inactive); in the assay on UACC-257, > 100 µM (inactive); in the assay with SK-MEL-2, > 100 µM (inactive). Moreover, the GI50 in the assay on HOP-92, in the assay on SK-OV-3, in the assay on SNB-19, in the assay with TK-10 and with OVCAR-8 was > 100 µM (inactive) each time.

`COc1ccc(NC(=O)CC(=O)N2N=C(N(CCC#N)c3ccccc3Cl)CC2c2ccccc2)cc1` (configuration not stated): the GI50 with SF-295, in the assay on OVCAR-3, with UO-31, in the assay with ACHN, in the assay with NCI-H23 and with OVCAR-4 was > 100 µM (inactive) in each case. Further, the GI50 with K562, with UACC-62, in the assay with NCI-H522, with SK-MEL-28, in the assay on UACC-257 and in the assay on SK-MEL-2 was > 100 µM (inactive) throughout. Also, the GI50 in the assay with HOP-92, with SNB-75, with SNB-19, in the assay with TK-10 and in the assay with OVCAR-8 was > 100 µM (inactive) throughout.

For `Cc1ccc(Cl)c2c(=O)cc(-c3ccccc3)[nH]c12`, the GI50 in the assay with SF-295 is 55.8 µM (inactive); with UO-31 it was 37.9 µM (inactive); in the assay on ACHN it was 42.3 µM (inactive); in the assay with NCI-H23 it was 59.7 µM (inactive); in the assay with OVCAR-4, 55.3 µM (inactive); in the assay on K562, 49.2 µM (inactive). Moreover, the GI50 in the assay with UACC-62 was 42.5 µM (inactive); in the assay on NCI-H522 it was 63.7 µM (inactive); with SK-MEL-28, > 100 µM (inactive); in the assay with UACC-257 it was 58.1 µM (inactive); in the assay with SK-MEL-2 it was 47.9 µM (inactive); in the assay with HOP-92, 38.8 µM (inactive). Also, the GI50 with SNB-75 was 28.8 µM (inactive); in the assay on SK-OV-3, > 100 µM (inactive); in the assay on TK-10, 70.6 µM (inactive); in the assay with OVCAR-8 it was > 100 µM (inactive).

As for `O=C1C(Cl)=C(NCCOCCO)C(=O)c2c(O)ccc(O)c21`, the GI50 was 11.6 µM (inactive) in the assay on SF-295; 16 µM (inactive) in the assay on UO-31; 15.4 µM (inactive) in the assay with ACHN; 1.88 µM (inactive) with NCI-H23; 2.37 µM (inactive) in the assay with OVCAR-4; 2.65 µM (inactive) with K562. Also, the GI50 was 3.24 µM (inactive) in the assay on UACC-62; 1.98 µM (inactive) with NCI-H522; 2.97 µM (inactive) in the assay on UACC-257; 8.67 µM (inactive) in the assay on SK-MEL-2; 24.3 µM (inactive) in the assay on HOP-92; 17 µM (inactive) in the assay on SNB-75. Besides, the figures for the GI50 with SK-OV-3, in the assay with TK-10 and in the assay on OVCAR-8 were 17.3 µM (inactive), 13.6 µM (inactive) and 7.36 µM (inactive), respectively.
